Holding throughout (assay): area under concentration-response curve (viability) (AUC (a.u.)); higher = less active
What all share (settings): 48 h

For one assay, the system named is CU-ACC2. The essentials: (§1)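 After 48 h of treatment with 23 nL of each library compound at 11 concentrations, three adrenocortical carcinoma cell lines in 1,536-well plates (500–1,000 cells/well, 5 µL medium) were given CellTiter-Glo for 15 minutes at room temperature. Luminescence was then read and normalised per plate to vehicle and empty-well controls. AC50 and area under the curve were drawn from fitted concentration-response curves of inhibitory or non-responding classes only.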

The subject of another assay is NCI-H295R. The essentials: as §1
The next assay has as its system CU-ACC1. The essentials:
as §1

From the supplement of paper PMC10949913 come the findings set out here.

As for `CCC(CCCC)COC(=O)C(\C#N)=C(\c1ccccc1)c2ccccc2` (configuration not stated), the “area under concentration-response curve” value with CU-ACC2 turned out to be 667; in the assay with NCI-H295R, 583; in the assay with CU-ACC1, 540.

As for `CCCC(CCC)C(=O)NC/1=N/C(=O)N(/C=C1)[C@@H]2O[C@H](CO)[C@@H](O)C2(F)F`, the “area under concentration-response curve” value was 481 in the assay on CU-ACC2, 543 in the assay with NCI-H295R and 496 in the assay on CU-ACC1.

Turning to `Nc1ncnc2nc(-c3ccc(N4CCOCC4)nc3)cc(-c3cccc(Br)c3)c12`, the “area under concentration-response curve” value with CU-ACC2 was found to be 525; with NCI-H295R, 459; in the assay with CU-ACC1, 492.

With `O=C(C1CCCCC1)N1CC(=O)N2CCc3ccccc3C2C1` (configuration not stated), the “area under concentration-response curve” value with CU-ACC2 turned out to be 631; in the assay on NCI-H295R, 544; in the assay on CU-ACC1 it was 555.

Consider `COc1ccc(CCN2CCN(CCCc3ccccc3)CC2)cc1OC`, for which the “area under concentration-response curve” value stood at 627 in the assay on CU-ACC2, 562 with NCI-H295R and 541 in the assay on CU-ACC1.

Take `C[C@]\12CC[C@H](O)CC1=C/CC3C2CC[C@@]\4(C)C3C\C=C4[N]5C=NC6=C5C=CC=C6` (some centres not stated): the “area under concentration-response curve” value in the assay on CU-ACC2 came to 516; in the assay with NCI-H295R it was 548; in the assay with CU-ACC1, 540.

As for `O=C(NCc1cccc(O)c1)Nc1nc(-c2ccncc2)cs1`, the “area under concentration-response curve” value turned out to be 582 with CU-ACC2, 559 in the assay on NCI-H295R and 546 in the assay on CU-ACC1.

For the compound `NC1=NC=CC2=C1N=C[N]2[C@@H]3\C=C(CO)/[C@@H](O)[C@H]3O`, the entries for the “area under concentration-response curve” value in the assay with CU-ACC2, in the assay with NCI-H295R and in the assay with CU-ACC1 were 454, 403 and 448, respectively.

As to `CC[C@]12CC[C@H]3[C@@H](CCC/4=C/C(=O)CC[C@H]34)[C@@H]1CC[C@@]2(O)C#C`, the “area under concentration-response curve” value in the assay with CU-ACC2 is 614; with NCI-H295R, 575; in the assay on CU-ACC1 it was 519.

In the case of `C[C@]12CCC3[C@@H](CC[C@H]4NC(=O)\C=C/[C@]34C)[C@@H]1CC[C@@H]2C(=O)NC5=CC(=CC=C5C(F)(F)F)C(F)(F)F` (some centres not stated), the “area under concentration-response curve” value with CU-ACC2 amounted to 645; with NCI-H295R it was 578; with CU-ACC1, 557.

As to `O=C(O)/C=C/c1ccc(Cn2ccnc2)cc1`, the “area under concentration-response curve” value turned out to be 486 with CU-ACC2, 572 with NCI-H295R and 485 in the assay with CU-ACC1.

As for `CN(C)[C@H]\1[C@@H]2C[C@@H]\3CC4=C(C(=C(NC(=O)CNC(C)(C)C)C=C4N(C)C)O)C(=O)C3=C(O)/[C@@]2(O)C(=O)\C(=C1O)C(N)=O`, the “area under concentration-response curve” value turned out to be 452 in the assay on CU-ACC2, 379 in the assay on NCI-H295R and 380 in the assay on CU-ACC1.

Take `C[C@@H]1CC(=O)Nc2cccc(-c3ccc4c(c3)c(-c3cnn(C)c3)nn4C)c2N1`: the “area under concentration-response curve” value worked out at 602 in the assay on CU-ACC2, 550 in the assay with NCI-H295R and 517 in the assay with CU-ACC1.

`N/C1=N/C(=O)C/2=C(NC[C@@H](CNC3=CC=C(C=C3)C(=O)N[C@@H](CCC([O-])=O)C([O-])=O)N2C=O)\N1`: the “area under concentration-response curve” value in the assay on CU-ACC2 came to 552; in the assay with NCI-H295R, 529; in the assay on CU-ACC1, 494.

Regarding `O=C1CC[C@@]2(O)[C@H]3Cc4ccc(O)c5c4[C@@]2(CCN3CC2CC2)[C@H]1O5`, the “area under concentration-response curve” value with CU-ACC2 is 623; with NCI-H295R, 559; in the assay on CU-ACC1, 413.

On to `OC[C@H]1O[C@@H](OC2=CC3=C(C=C2)C(=O)\C(=C/O3)C4=CC=C(O)C=C4)[C@H](O)[C@@H](O)[C@@H]1O`, for which the “area under concentration-response curve” value came out at 591 in the assay on CU-ACC2, 576 in the assay with NCI-H295R and 551 with CU-ACC1.

For `COc1ccc([S+](=O)([O-])N2CCc3cccc(-c4ccncc4)c32)cc1`, the “area under concentration-response curve” value in the assay with CU-ACC2 was 563; in the assay with NCI-H295R, 472; with CU-ACC1, 576.

Turning to `CC(C)C1CCC(C(=O)N[C@H](Cc2ccccc2)C(=O)O)CC1` (some centres not stated), the “area under concentration-response curve” value stood at 652 in the assay with CU-ACC2, 599 in the assay with NCI-H295R and 551 in the assay with CU-ACC1.

As for `COc1cc(C)c(/C=C/C(C)=C/C=C/C(C)=C/C(=O)O)c(C)c1C`, the “area under concentration-response curve” value stood at 544 in the assay on CU-ACC2, 524 in the assay on NCI-H295R and 484 with CU-ACC1.

`C[S+]([O-])(=O)NC1=CC2=C(C=C1OC3=CC=CC=C3)C(=O)\C(=C/O2)NC=O`: the “area under concentration-response curve” value in the assay on CU-ACC2 worked out at 508; with NCI-H295R, 487; in the assay with CU-ACC1, 477.

In the case of `O=C(c1c(F)ccc(N[S+](=O)([O-])N2CC[C@@H](F)C2)c1F)c1c[nH]c2ncc(-c3cnc(C4CC4)nc3)cc12`, the “area under concentration-response curve” value with CU-ACC2 worked out at 574; with NCI-H295R, 474; in the assay on CU-ACC1, 470.

In the case of `CCCCCCCc1ccc(CCc2cccc(O)c2C(=O)O)cc1`, the “area under concentration-response curve” value was 574 in the assay on CU-ACC2, 534 in the assay on NCI-H295R and 515 with CU-ACC1.

For `CCN1CCN(c2ccc(Nc3cc(N(C)C(=O)Nc4c(Cl)c(OC)cc(OC)c4Cl)ncn3)cc2)CC1`, the “area under concentration-response curve” value with CU-ACC2 amounted to 580; in the assay with NCI-H295R, 479; in the assay on CU-ACC1, 511.

For the compound `C\C1=C(\SSC1=S)C2=CN=CC=N2`, the “area under concentration-response curve” value in the assay on CU-ACC2 came out at 618; in the assay with NCI-H295R, 569; in the assay with CU-ACC1, 524.

Regarding `Cn1ncc2cc(-c3cnc(N)c(Cl)c3N3CCC4(CCNC4=O)CC3)ccc21`, the “area under concentration-response curve” value in the assay with CU-ACC2 turned out to be 484; with NCI-H295R, 536; in the assay with CU-ACC1, 475.

In the case of `CN(C)c1nc(N(C)C)nc(N(C)C)n1`, the results for the “area under concentration-response curve” value with CU-ACC2, in the assay with NCI-H295R and in the assay on CU-ACC1 were 577, 476 and 509, respectively.

For the compound `CC1=NN(c2ccc(C(=O)O)cc2)C(=O)/C1=C/c1ccc(-c2cc(C)c(C)cc2[N+](=O)[O-])o1`, the “area under concentration-response curve” value with CU-ACC2 was 661; with NCI-H295R it was 585; with CU-ACC1 it was 556.

Take `N[C@@H]1CN(CC12CC2)C3=C(F)C=C4C(=O)\C(=C/N([C@@H]5C[C@@H]5F)C4=C3Cl)C(O)=O`: the “area under concentration-response curve” value with CU-ACC2 is 426; with NCI-H295R it was 381; with CU-ACC1 it was 390.

`Cc1c(F)cc(C(=O)NC2CC2)cc1-c1c(F)cn2c(C(C)(C)C)nnc2c1F`: the “area under concentration-response curve” value with CU-ACC2 stood at 507; with NCI-H295R, 469; in the assay on CU-ACC1, 482.

As for `CC\1=C(C(\N=C(/N1)C2=CC(=NC=C2)Cl)C3=C(F)C=C(Cl)C=C3)/C(=O)NC4=C(F)C=C5[NH]N=CC5=C4` (configuration not stated), the results for the “area under concentration-response curve” value in the assay with CU-ACC2, in the assay on NCI-H295R and with CU-ACC1 were 466, 488 and 492, respectively.

Consider `COc1ccc(C2CNC(=O)C2)cc1OC1CCCC1` (configuration not stated), for which the “area under concentration-response curve” value in the assay on CU-ACC2 stood at 538; with NCI-H295R, 501; in the assay on CU-ACC1 it was 451.

Consider `CC#CCn1c(N2CCC[C@@H](N)C2)nc2c1c(=O)n(Cc1nc(C)c3ccccc3n1)c(=O)n2C`, for which the “area under concentration-response curve” value was 606 in the assay with CU-ACC2, 561 in the assay on NCI-H295R and 503 with CU-ACC1.

On to `CN(CCOc1ccc(N[S+](C)(=O)[O-])cc1)CCc1ccc(N[S+](C)(=O)[O-])cc1`, for which the “area under concentration-response curve” value in the assay on CU-ACC2 stood at 637; with NCI-H295R, 586; in the assay on CU-ACC1, 541.

As to `C[C@]12COC(=O)C[C@@H]1CC[C@@H]1[C@@H]2CC[C@@]2(C)[C@H]1CC[C@]2(C)O`, the “area under concentration-response curve” value came out at 482 with CU-ACC2, 447 in the assay on NCI-H295R and 448 in the assay on CU-ACC1.

In the case of `CNC(=O)c1c(-c2ccc(F)cc2)oc2cc(N(CCO)[S+](C)(=O)[O-])c(C3CC3)cc12`, the “area under concentration-response curve” value in the assay with CU-ACC2 came out at 580; in the assay with NCI-H295R, 496; with CU-ACC1 it was 470.

On to `C[C@H]1C[C@@H](n2c(Nc3ccc(OC(F)(F)F)cc3)nc3cc(CCC(=O)O)ccc32)CC(C)(C)C1`, for which the “area under concentration-response curve” value worked out at 405 in the assay on CU-ACC2, 485 in the assay on NCI-H295R and 424 with CU-ACC1.

`S=C1N\C=N/C2=C1[NH]C=N2`: the entries for the “area under concentration-response curve” value in the assay on CU-ACC2, in the assay with NCI-H295R and in the assay with CU-ACC1 were 518, 495 and 438, respectively.

Regarding `ClC1=CC=C2OC3=C(\N=C(NC3=O)\[C@@H]4CCCN4)C2=C1`, the “area under concentration-response curve” value was determined as 601 in the assay with CU-ACC2, 534 in the assay on NCI-H295R and 410 in the assay with CU-ACC1.

Consider `CC[C@@H](Oc1cccc(CN(CCCOc2ccc(OC)cc2)c2nc3ccccc3o2)c1)C(=O)O`, for which the “area under concentration-response curve” value was 571 with CU-ACC2, 519 with NCI-H295R and 562 in the assay with CU-ACC1.
